Assay results published in patent US20080021071A1, “3-{4-(Pyridin-3-Yl) Phenyl}-5-(1H-1,2,3-Triazol-1-Ylmethyl)-1,3-Oxazolidin-2-Ones as Antibacterial Agents” (ASTRAZENECA AB, priority 2004, published 2008).
Values after ≈ are worked out from the molar mass of the structure shown. Structures can show the parent of a compound that is named as a salt.

Legend:
[1] = test system: Streptococcus pneumoniae; assay: MIC, Streptococcus pneumoniae; assay type: cell-based
Experimental: (§1) The following results were obtained on a standard in-vitro test system. The activity is described in terms of the minimum inhibitory concentration (MIC) determined by the agar-dilution technique with an inoculum size of 10^4 CFU/spot. Typically, compounds are active in the range 0.01 to 256 μg/ml.
(§2) Streptococci and enterococci were tested on agar supplemented with 5% defibrinated horse blood, an inoculum of 10^4 CFU/spot and an incubation temperature of 37° C. in an atmosphere of 5% carbon dioxide for 48 hours—blood is required for the growth of some of the test organisms. Fastidious Gram negative organisms were tested in Mueller-Hinton broth, supplemented with hemin and NAD, grown aerobically for 24 hours at 37° C., and with an innoculum of 5×10^4 CFU/well.

[2] = molecular target: T1, MAO-A (Homo sapiens, UniProt P21397); assay: MAO-A inhibition, standard in-vitro assay, human liver enzyme expressed in yeast; assay type: biochemical
T1 construct: made in house; host or cells: yeast
T1 sequence (P21397 1-527): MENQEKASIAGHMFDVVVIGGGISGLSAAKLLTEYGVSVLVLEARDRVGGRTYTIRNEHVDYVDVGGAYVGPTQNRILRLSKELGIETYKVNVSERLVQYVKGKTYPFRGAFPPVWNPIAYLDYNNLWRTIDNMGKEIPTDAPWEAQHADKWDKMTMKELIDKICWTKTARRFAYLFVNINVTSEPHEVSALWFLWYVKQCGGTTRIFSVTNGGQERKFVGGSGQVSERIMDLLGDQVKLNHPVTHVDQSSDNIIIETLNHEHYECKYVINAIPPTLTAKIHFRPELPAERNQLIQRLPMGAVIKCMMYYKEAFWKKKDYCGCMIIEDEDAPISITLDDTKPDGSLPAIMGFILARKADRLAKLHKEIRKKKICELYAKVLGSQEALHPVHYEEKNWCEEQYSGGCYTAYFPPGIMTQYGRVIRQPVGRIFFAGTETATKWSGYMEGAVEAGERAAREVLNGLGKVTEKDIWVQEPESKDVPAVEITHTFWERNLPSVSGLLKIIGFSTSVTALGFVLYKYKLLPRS
Experimental: The activity of the compounds of the invention against MAO-A was tested using a standard in-vitro assay based on human liver enzyme expressed in yeast as described in Biochem. Biophys. Res. Commun. 1991, 181, 1084-1088. Compounds of the invention typically give Ki values of >5 μM when measured in such an assay as above.

[3] = test system: Linezolid Resistant Streptococcus pneumoniae; assay: MIC, Linezolid Resistant Streptococcus pneumoniae; assay type: cell-based
Experimental: as §1, §2

[4] = test system: Staphylococcus aureus MRQR; assay: MIC, agar-dilution, Staphylococcus aureus MRQR; assay type: cell-based; details: Staphylococcus aureus MRQR (methicillin resistant and quinolone resistant)
Experimental: as §1
(§3) Staphylococci were tested on agar, using an inoculum of 10^4 CFU/spot and an incubation temperature of 37° C. for 24 hours—standard test conditions for the expression of methicillin resistance.

[5] = test system: Staphylococcus aureus MSQS; assay: MIC, agar-dilution, Staphylococcus aureus MSQS; assay type: cell-based; details: Staphylococcus aureus MSQS (methicillin sensitive and quinolone sensitive)
Experimental: as §1, §3

[6] = test system: Haemophilus influenzae; assay: MIC, Haemophilus influenzae; assay type: cell-based
Experimental: as §1, §2

[7] = equilibrium solubility in pH 7.4 phosphate buffer; assay type: physicochemical; details: aqueous buffer, thermodynamic from solid
Description: It will be understood that parameters such as solubility may be measured by any suitable technique known in the art.

| SMILES | melting point | Ki [2] | further results |
| --- | --- | --- | --- |
| O=C1O[C@@H](Cn2ccnn2)CN1c1ccc(-c2ccc(C(O)CN3CCOCC3)nc2)c(F)c1 (stereo partly drawn) (as salt: hydrochloride) [Example 1, (5R)-3-{3-Fluoro-4-[6-(1-hydroxy-2-morpholin-4-ylethyl)pyridin-3-yl]phenyl}-5-(1H-1,2,3-triazol-1-ylmethyl)-1,3-oxazolidin-2-one] | > 194 °C (dec.) | – | – |
| CN(C)CC(O)c1ccc(-c2ccc(N3C[C@H](Cn4ccnn4)OC3=O)cc2F)cn1 (stereo partly drawn) (as salt: hydrochloride) [Example 2, (5R)-3-(4-{6-[2-(Dimethylamino)-1-hydroxyethyl]pyridin-3-yl}-3-fluorophenyl)-5-(1H-1,2,3-triazol-1-ylmethyl)-1,3-oxazolidin-2-one] | > 115 °C (dec.) | – | – |
| CC(C)NCC(O)c1ccc(-c2ccc(N3C[C@H](Cn4ccnn4)OC3=O)cc2F)cn1 (stereo partly drawn) (as salt: hydrochloride) [Example 3, (5R)-3-(3-Fluoro-4-{6-[1-hydroxy-2-(isopropylamino)ethyl]pyridin-3-yl}phenyl)-5-(1H-1,2,3-triazol-1-ylmethyl)-1,3-oxazolidin-2-one] | > 170 °C (dec.) | – | – |
| O=C1O[C@@H](Cn2ccnn2)CN1c1ccc(-c2ccc(C(O)CN3CCOCC3)nc2)c(F)c1 (stereo partly drawn) [Example 1, (5R)-3-{3-Fluoro-4-[6-(1-hydroxy-2-morpholin-4-ylethyl)pyridin-3-yl]phenyl}-5-(1H-1,2,3-triazol-1-ylmethyl)-1,3-oxazolidin-2-one] | – | 94 µM | MIC [1]: 0.25 µg/mL (≈ 0.534 µM); MIC [3]: 2 µg/mL (≈ 4.27 µM); MIC [4]: 1 µg/mL (≈ 2.13 µM); MIC [5]: 1 µg/mL (≈ 2.13 µM); MIC [6]: 4 µg/mL (≈ 8.54 µM) |
| O=C1O[C@@H](Cn2ccnn2)CN1c1ccc(-c2ccc(C(O)CO)nc2)c(F)c1 (stereo partly drawn) [Example 4, (5R)-3-{4-[6-(1,2-Dihydroxyethyl)pyridin-3-yl]-3-fluorophenyl}-5-(1H-1,2,3-triazol-1-ylmethyl)-1,3-oxazolidin-2-one] | 175 °C | 48 µM | solubility thermodynamic [7]: 210 µM (≈ 83.9 µg/mL) |
| CC(C)(O)c1ccc(-c2ccc(N3C[C@H](Cn4ccnn4)OC3=O)cc2F)cn1 [Example 5, (5R)-3-{3-Fluoro-4-[6-(1-hydroxy-1-methylethyl)pyridin-3-yl]phenyl}-5-(1-1,2,3-triazol-1-ylmethyl)-1,3-oxazolidin-2-one] | 180 °C | – | – |
| CN(Cc1ccc(-c2ccc(N3C[C@H](Cn4ccnn4)OC3=O)cc2F)cn1)CC(O)CO (stereo partly drawn) [Example 6, (5R)-3-[4-(6-{[(2,3-Dihydroxypropyl)(methyl)amino]methyl}pyridin-3-yl)-3-fluorophenyl]-5-(1-1,2,3-triazol-1-ylmethyl)-1,3-oxazolidin-2-one] | 123 °C | – | – |
| CN(CCO)Cc1ccc(-c2ccc(N3C[C@H](Cn4ccnn4)OC3=O)cc2F)cn1 [Example 7, (5R)-3-[3-Fluoro-4-(6-{[(2-hydroxyethyl)(methyl)amino]methyl}pyridin-3-yl)phenyl]-5-(1H-1,2,3-triazol-1-ylmethyl)-1,3-oxazolidin-2-one] | 137 °C | – | – |
| CN(C)Cc1ccc(-c2ccc(N3C[C@H](Cn4ccnn4)OC3=O)cc2F)cn1 [Example 8] | 160 °C | 15 µM | – |
| O=C1O[C@@H](Cn2ccnn2)CN1c1ccc(-c2ccc(CN3CCOCC3)nc2)c(F)c1 [Example 9, (5R)-3-{3-Fluoro-4-[6-(morpholin-4-ylmethyl)pyridin-3-yl]phenyl}-5-(1H-1,2,3-triazol-1-ylmethyl)-1,3-oxazolidin-2-one] | 175 °C | – | – |
| C[C@@H](O)c1ccc(-c2ccc(N3C[C@H](Cn4ccnn4)OC3=O)cc2F)cn1 [Example 10, (5R)-3-(3-Fluoro-4-{6-[(1R)-1-hydroxyethyl]pyridin-3-yl}phenyl)-5-(1H-1,2,3-triazol-1-ylmethyl)-1,3-oxazolidin-2-one] | 190 °C | – | – |
| Cn1nnc(-c2ccc(-c3ccc(N4C[C@H](Cn5ccnn5)OC4=O)cc3F)cn2)n1 [Reference Example 6, (5R)-3-(3-Fluoro-4-(6-(2-methyl-2H-tetrazol-5-yl)pyrid-3-yl)phenyl)-5-(1H-1,2,3-triazol-1-ylmethyl)-1,3-oxazolidin-2-one, reference compound] | – | – | solubility thermodynamic [7]: < 7.1 µM |

Second part, led by results:

| melting point | Ki [2] | SMILES | further results |
| --- | --- | --- | --- |
| 183 °C | – | C[C@H](O)c1ccc(-c2ccc(N3C[C@H](Cn4ccnn4)OC3=O)cc2F)cn1 [Example 11, (5R)-3-(3-Fluoro-4-{6-[(1S)-1-hydroxyethyl]pyridin-3-yl}phenyl)-5-(1H-1,2,3-triazol-1-ylmethyl)-1,3-oxazolidin-2-one] | – |
| 131 to 133 °C | – | O=C(OCc1ccc(-c2ccc(N3C[C@H](Cn4ccnn4)OC3=O)cc2F)cn1)N1CCOCC1 [Example 13, (5-{2-Fluoro-4-[(5R)-2-oxo-5-(1H-1,2,3-triazol-1-ylmethyl)-1,3-oxazolidin-3-yl]phenyl}pyridin-2-yl)methyl morpholine-4-carboxylate] | – |
| 130 to 135 °C | – | CC(=O)CC(O)c1ccc(-c2ccc(N3C[C@H](Cn4ccnn4)OC3=O)cc2F)cn1 (stereo partly drawn) [Example 14, (5R)-3-{3-Fluoro-4-[6(1-hydroxy-3-oxobutyl)pyridin-3-yl]phenyl}-5-(1H-1,2,3-triazol-1-ylmethyl)-1,3-oxazolidin-2-one] | – |
| 160 to 163 °C | – | O=C1O[C@@H](Cn2ccnn2)CN1c1ccc(-c2ccc(C(O)C3CC3)nc2)c(F)c1 (stereo partly drawn) [Example 16, (5R)-3-(4-{6-[Cyclopropyl(hydroxy)methyl]pyridin-3-yl}-3-fluorophenyl)-5-(1H-1,2,3-triazol-1-ylmethyl)-1,3-oxazolidin-2-one] | – |
| 195 to 200 °C | – | Cc1cnc(C)n1CC(O)c1ccc(-c2ccc(N3C[C@H](Cn4ccnn4)OC3=O)cc2F)cn1 (stereo partly drawn) [Example 20, (5R)-3-(4-{6-[2-(2,5-Dimethyl-1H-imidazol-1-yl)-1-hydroxyethyl]pyridin-3-yl}-3-fluorophenyl)-5-(1H-1,2,3-triazol-1-ylmethyl)-1,3-oxazolidin-2-one] | – |
| – | < 0.3 µM | N#Cc1ccc(-c2ccc(N3C[C@H](Cn4ccnn4)OC3=O)cc2F)cn1 [Ref Example 1, 5-{2-Fluoro-4-[(5R)-2-oxo-5-(1H-1,2,3-triazol-1-ylmethyl)-1,3-oxazolidin-3-yl]phenyl}pyridine-2-carbonitrile] | – |
| – | 0.6 µM | Cc1ccc(-c2ccc(N3C[C@H](Cn4ccnn4)OC3=O)cc2F)cn1 [Ref Example 2, (5R)-3-[3-Fluoro-4-(6-methylpyridin-3-yl)phenyl]-5-(1H-1,2,3-triazol-1-ylmethyl)-1,3-oxazolidin-2-one] | – |
| 177 °C | 4.8 µM | O=C1O[C@@H](Cn2ccnn2)CN1c1ccc(-c2ccc(CO)nc2)c(F)c1 [Ref Example 3, (5R)-3-{3-Fluoro-4-[6-(hydroxymethyl)pyridin-3-yl]phenyl}-5-(1H-1,2,3-triazol-1-ylmethyl)-1,3-oxazolidin-2-one] | – |
| – | < 0.3 µM | O=C1O[C@@H](Cn2ccnn2)CN1c1ccc(-c2cccnc2)c(F)c1 [Ref Example 4, (5R)-3-(3-Fluoro-4-pyridin-3-ylphenyl)-5-(1H-1,2,3-triazol-1-ylmethyl)-1,3-oxazolidin-2-one] | – |
| 210 to 212 °C | 3.65 µM | Cc1cn(C[C@H]2CN(c3ccc(-c4ccc(C#N)nc4)c(F)c3)C(=O)O2)nn1 [Ref Example 7, 5-(2Fluoro-4-{(5R)-5-[(4-methyl-1H-1,2,3-triazol-1-yl)methyl]-2-oxo-1,3-oxazolidin-3-yl}phenyl)pyridine-2-carbonitrile] | – |
